Laboratory results reported in patent publication US20130072427A1, “GPR 119 MODULATORS” (Pfizer Inc., priority 2009, published 2013).
Where “and” joins values, the source holds several entries; their conditions need not be identical. Equal values may be shown once.

What follows are compounds tested against T1, human GPR119 (Homo sapiens, UniProt Q8TDV5) (assay: GPR119 radioligand binding assay ([3H]Cmpd A, membranes of HEK 293FT cells over-expressing hGPR119)). Conditions: competition with 3H-Cmpd A; Ki from IC50 by Cheng-Prusoff; one line per run.
T1 construct: host or cells: HEK293-CRE beta-lactamase cells
T1 sequence (Q8TDV5 1-335): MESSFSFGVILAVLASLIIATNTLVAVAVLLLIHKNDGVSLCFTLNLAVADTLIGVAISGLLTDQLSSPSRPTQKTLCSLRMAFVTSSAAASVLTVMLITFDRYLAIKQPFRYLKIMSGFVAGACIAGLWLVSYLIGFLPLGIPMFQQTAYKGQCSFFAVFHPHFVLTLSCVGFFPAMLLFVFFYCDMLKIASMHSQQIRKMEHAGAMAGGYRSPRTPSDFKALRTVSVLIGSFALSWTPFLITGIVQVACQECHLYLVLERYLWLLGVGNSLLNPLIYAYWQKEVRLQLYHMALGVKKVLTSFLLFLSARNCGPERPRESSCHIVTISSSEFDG
Procedure: HEK 293FT cells (Invitrogen, Carlsbad, Calif.) were grown in a shake flask in 293Freestyle medium (Invitrogen) supplemented with 50 microg/mL neomycin and 10 mM HEPES (37 C, 8% carbon dioxide, shaking). The cells were centrifuged gently (approximately 500×g, 10 minutes) and the pellet resuspended in a mixture of Dulbecco's PBS(minus Mg++/−Ca++) supplemented with 18% fetal bovine serum (Sigma Aldrich) and P1 virus such that the multiplicity of infection (MOI) was 10 and the final cell density was 1.3×10^6/ml (total volume 2.5 liters). The cells were transferred to a 5 liter Wave Bioreactor Wavebag (Wave Technologies, MA) and incubated for 4 hours at 27 degrees Celsius (17 rocks/min, 7 degrees platform angle); at the end of the incubation period, an equal volume (2.5 liters) of 293Freestyle medium supplemented with 30 mM sodium butyrate (Sigma Aldrich) was added (final concentration=15 mM), and the cells were grown for 20 hours (37 degrees Celsius, 8% CO2 [0.2 liters/min}, 25 rocks/minute, 7 degrees platform angle). Cells were harvested via centrifugation (3,000×g, 10 minutes), washed once on DPBS (minus Ca++/Mg++), resuspended in 0.25M sucrose, 25 mM HEPES, 0.5 mM EDTA, pH 7.4 and frozen at −80 degrees Celsius.
The frozen cells were thawed on ice and centrifuged at 700×g (1400 rpm) for 10 minutes at 4 degrees Celsius. The cell pellet was resuspended in 20 ml phosphate-buffered saline, and centrifuged at 1400 rpm for 10 minutes. The cell pellet was then resuspended in homogenization buffer (10 mM HEPES (Gibco #15630), pH 7.5, 1 mM EDTA (BioSolutions, #BIO260-15), 1 mM EGTA (Sigma, #E-4378), 0.01 mg/ml benzamidine (Sigma #B 6506), 0.01 mg/ml bacitracin (Sigma #B 0125), 0.005 mg/ml leupeptin (Sigma #L 8511), 0.005 mg/ml aprotinin (Sigma #A 1153)) and incubated on ice for 10 minutes. Cells were then lysed with 15 gentle strokes of a tight-fitting glass Dounce homogenizer. The homogenate was centrifuged at 1000×g (2200 rpm) for 10 minutes at 4 degrees Celsius. The supernatant was transferred into fresh centrifuge tubes on ice. The cell pellet was resuspended in homogenization buffer, and centrifuged again at 1000×g (2200 rpm) for 10 minutes at 4 degrees Celsius after which the supernatant was removed and the pellet resuspended in homogenization buffer. This process was repeated a third time, after which the supernatants were combined, Benzonase (Novagen #71206) and MgCl2 (Fluka #63020) were added to final concentrations of 1 U/ml and 6 mM, respectively, and incubated on ice for one hour. The solution was then centrifuged at 25,000×g (15000 rpm) for 20 minutes at 4 degrees Celsius, the supernatant was discarded, and the pellet was resuspended in fresh homogenization buffer (minus Benzonase and MgCl2). After repeating the 25,000×g centrifugation step, the final membrane pellet was resuspended in homogenization buffer and frozen at −80 degrees Celsius. The protein concentration was determined using the Pierce BCA protein assay kit (Pierce reagents A #23223 and B #23224).
Test compounds were serially diluted in 100% DMSO (J. T. Baker #922401). 2 microL of each dilution was added to appropriate wells of a 96-well plate (each concentration in triplicate). Unlabeled Cmpd A, at a final concentration of 10 microM, was used to determine non-specific binding.
^3H-Cmpd A was diluted in binding buffer (50 mM Tris-HCl, pH 7.5, (Sigma #T7443), 10 mM MgCl2 (Fluka 63020), 1 mM EDTA (BioSolutions #BIO260-15), 0.15% bovine serum albumin (Sigma #A7511), 0.01 mg/mL benzamidine (Sigma #B 6506), 0.01 mg/mL bacitracin (Sigma #B 0125), 0.005 mg/mL leupeptin (Sigma #L 8511), 0.005 mg/mL aprotinin (Sigma #A 1153)) to a concentration of 60 nM, and 100 microL added to all wells of 96-well plate (Nalge Nunc #267245).
Membranes expressing GPR119 were thawed and diluted to a final concentration of 20 μg/100 microL per well in Binding Buffer, and 100 microL of diluted membranes were added to each well of 96-well plate. […]

| Structure (SMILES) | Ki |
| --- | --- |
| Cc1c(OC2CCN(C(=O)OC(C)C)CC2)ncnc1N1Cc2cnn(C)c2C1 [Example 2, Isopropyyl 4-{[5-methyl-6-(1-methyl-4,6-dihydropyrrolo[3,4-c]pyrazol-5(1H)-yl)pyrimidin-4-yl]oxy}piperidine-1-carboxylate] | 0.502 µM and 0.229 µM and 0.171 µM |
| CC(C)OC(=O)N1CCC(Oc2ncnc(N3Cc4cnn(C)c4C3)c2C#N)CC1 [Example 3, Isopropyyl 4-{[5-cyano-6-(1-methyl-4,6-dihydropyrrolo[3,4-c]pyrazol-5(1H)-yl)pyrimidin-4-yl]oxy}piperidine-1-carboxylate] | 0.233 µM |
| Cc1c(O[C@H]2CCN(C(=O)OC(C)(C)C)C[C@@H]2F)ncnc1N1Cc2cnn(C)c2C1 (racemic) [Example 8, tert-Butyl (3,4-trans)-3-fluoro-4-{[5-methyl-6-(1-methyl-4,6-dihydropyrrolo[3,4-c]pyrazol-5(1H)-yl)pyrimidin-4-yl]oxy}piperidine-1-carboxylate (racemic)] | 0.13 µM |
| Cc1c(O[C@H]2[C@@H]3COC[C@H]2CN(C(=O)OC(C)(C)C)C3)ncnc1N1Cc2cnn(C)c2C1 [Example 9, tert-Butyl (9-anti)-9-{[5-methyl-6-(1-methyl-4,6-dihydropyrrolo[3,4-c]pyrazol-5(1H)-yl)pyrimidin-4-yl]oxy}-3-oxa-7-azabicyclo[3.3.1]nonane-7-carboxylate] | 0.051 µM |

The remaining lines, values ahead:

| Ki | Structure (SMILES) |
| --- | --- |
| 0.0034 µM and 0.011 µM | Cc1c(O[C@H]2CCN(C(=O)OC3(C)CC3)C[C@H]2F)ncnc1N1Cc2cnn(C)c2C1 (racemic) [Example 7, 1-Methylcyclopropyyl (3,4-cis)-3-fluoro-4-{[5-methyl-6-(1-methyl-4,6-dihydropyrrolo[3,4-c]pyrazol-5(1H)-yl)pyrimidin-4-yl]oxy}piperidine-1-carboxylate (racemic)] |
| 0.036 µM | Cc1c(O[C@H]2CCN(C(=O)OC(C)(C)C)C[C@H]2F)ncnc1N1Cc2cnn(C)c2C1 (racemic) [Example 6, tert-Butyl (3,4-cis)-3-fluoro-4-{[5-methyl-6-(1-methyl-4,6-dihydropyrrolo[3,4-c]pyrazol-5(1H)-yl)pyrimidin-4-yl]oxy}piperidine-1-carboxylate (racemic)] |
